Entries after “also recorded” stand apart in the source; their conditions may differ.
Assays:
[1] = molecular target: T1, GCase in fibroblasts with the N370S/RecNcil mutation (Homo sapiens, UniProt P04062, N409S); test: Pharmacological chaperoning activity (GCase activity in Gaucher patient fibroblasts); type: cell-based; conditions: six concentrations (10 nM to 100 µM), 4 days incubation
T1 construct: Fibroblasts with the N370S/RecNcil mutation from patients with Gaucher disease; host or cells: human Gaucher patient fibroblasts, N370S/RecNciI
T1 sequence (P04062 40-536 N409S): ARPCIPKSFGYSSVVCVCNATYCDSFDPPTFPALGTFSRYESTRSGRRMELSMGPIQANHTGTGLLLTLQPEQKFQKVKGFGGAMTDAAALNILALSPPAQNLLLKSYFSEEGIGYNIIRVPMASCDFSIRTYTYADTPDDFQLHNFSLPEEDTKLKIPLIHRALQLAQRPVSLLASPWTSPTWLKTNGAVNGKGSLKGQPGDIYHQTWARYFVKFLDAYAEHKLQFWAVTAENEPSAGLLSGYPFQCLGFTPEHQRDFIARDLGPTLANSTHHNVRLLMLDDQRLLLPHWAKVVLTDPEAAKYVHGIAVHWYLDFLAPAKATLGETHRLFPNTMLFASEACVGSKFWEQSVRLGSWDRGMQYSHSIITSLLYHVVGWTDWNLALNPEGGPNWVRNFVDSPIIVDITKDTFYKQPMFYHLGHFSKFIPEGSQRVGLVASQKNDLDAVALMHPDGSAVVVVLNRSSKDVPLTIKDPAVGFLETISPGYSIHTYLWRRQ
Procedure: Fibroblasts with the N370S/RecNcil mutation from patients with Gaucher disease were obtained from the “Cell line and DNA Biobank from patients affected by Genetic Diseases” (Gaslini Hospital, Genova, Italy). Fibroblasts cells (15.0 × 10^4) were seeded in T25 flasks with DMEM supplemented with fetal bovine serum (10%), penicillin/streptomycin (1%), and glutamine (1%) and incubated at 37 °C with 5% CO2 for 24 h. The medium was removed, and fresh medium containing compound 10 was added to the cells and left for 4 days. The medium was removed, and the cells were washed with PBS and detached with trypsin to obtain cell pellets, which were washed four times with PBS, frozen, and lysed by sonication in water. Enzyme activity was measured as reported above. Reported data are mean S.D. (n = 2).
Pharmacological chaperoning activity
Fibroblasts with the N370S/RecNcil mutation from Gaucher disease patients were obtained from the “Cell line and DNA Biobank from patients affected by Genetic Diseases” (Gaslini Hospital, Genova, Italy). Fibroblasts cells (20.0 x 104) were seeded in T25 flasks with DMEM supplemented with fetal bovine serum (10%), penicillin/streptomycin (1%), and glutamine (1%) and incubated at 37 °C with 5% CO2 for 24 h. The medium was removed, and fresh medium containing the compounds 9, 10 or 12 at different concentrations (10 nM, 100 nM, 1 µM, 10 µM, 50 µM, 100 µM) was added to the cells and left for 4 days. The medium was removed, and the cells were washed with PBS and detached with trypsin to obtain cell pellets, which were washed four times with PBS, frozen and lysed by sonication in water. Enzyme activity was measured as reported above. Reported data are mean S.D. (n=2).
Figure S52: GCase activity in human fibroblasts derived from GD patients bearing N370/RecNcil mutations in the presence of compound 9.
Figure S53: GCase activity in human fibroblasts derived from GD patients bearing N370/RecNcil mutations in the presence of compound 10. The flasks containing cells incubated with 100 µM and 50 µM […]

[2] = system: α-glucosidase EC 3.2.1.20; test: Commercial glycosidase screening; type: biochemical, rice; conditions: 0.1 mM inhibitor
Excerpt: (§1) A panel of 12 commercial glycosidases (α-L-fucosidase EC 3.2.1.51 from Homo sapiens, α-galactosidase EC 3.2.1.22 from coffee beans, β-galactosidases EC 3.2.1.23 from Escherichia coli and Aspergillus oryzae, α-glucosidases EC 3.2.1.20 from yeast and rice, amyloglucosidase EC 3.2.1.3 from Aspergillus niger, β-glucosidase EC 3.2.1.21 from almonds, α-mannosidase EC 3.2.1.24 from Jack beans, β-mannosidase EC 3.2.1.25 from snail, β-N-acetylglucosaminidases EC 3.2.1.52 from Jack beans and bovine kidney) purchased from Sigma-Aldrich (St. Louis, MO, USA) or Megazyme Ltd. (Bray, Co. Wicklow, Ireland) was screened.
(§2) The percentage (%) of inhibition towards the corresponding glycosidase was determined in quadruplicate in the presence of 100 μM of the inhibitor on the well. Each enzymatic assay (final volume 0.12 mL) contains 0.01–0.5 units/mL of the enzyme (with previous calibration) and 4.2 mM aqueous solution of the appropriate p-nitrophenyl glycopyranoside (substrate) buffered to the optimal pH of the enzyme. Enzyme and inhibitor were preincubated for 5 min at room temperature, and the reaction started by addition of the substrate. After 20 min of incubation at 37 °C, the reaction was stopped by the addition of 0.1 mL of sodium borate solution (pH 9.8). The p-nitrophenolate formed was measured by visible absorption spectroscopy at 405 nm (Asys Expert 96 spectrophotometer, Biochrom Ltd., Cambridge, England). Under these conditions, the p-nitrophenolate released led to optical densities linear with both reaction time and concentration of the enzyme (for more details, see the Supplementary Materials). The IC50 value (concentration of inhibitor required for 50% inhibition of enzyme activity) was determined from plots of % inhibition vs. different inhibitor concentrations. Each point of the graph is the average of four measures. The standard deviation for each point has been also represented in the graph.

[3] = system: β-mannosidase EC 3.2.1.25; test: Commercial glycosidase screening; type: biochemical, snail; conditions: 0.1 mM inhibitor
Excerpt: as §1, §2

## CCCCCCCCCO[C@H]1CNC[C@@H](O)[C@H]1O [compound 9, (3S, 4R, 5R)-4,5-Dihydroxy-3-(Nonyloxy) Piperidine]
[1]
  GCase enzyme rescue (chaperoning activity): did not impart any enzyme rescue; also recorded: None of the compounds gave enzyme rescue

## CCCCCCCCCCCCN[C@H]1CNC[C@@H](O)[C@H]1O [compound 10, (3R, 4S, 5S)-3,4-Dihydroxy-5-(Dodecylamino) Piperidine]
[1]
  GCase enzyme rescue (chaperoning activity): failed to rescue the enzyme activity; also recorded: did not impart any enzyme rescue; also recorded: None of the compounds gave enzyme rescue
[2]
  % Inhibition at 0.1 mM, α-glucosidase rice: - (no inhibition detected)
[3]
  % Inhibition at 0.1 mM, β-mannosidase snail: - (no inhibition detected)

## CCCCCCCC[C@]1(O)CNC[C@@H](O)[C@H]1O [compound 12, (3S, 4R, 5R)-3,4,5-Trihydroxy-3-Octyl-Piperidine]
[1]
  GCase enzyme rescue (chaperoning activity): did not impart any enzyme rescue; also recorded: None of the compounds gave enzyme rescue
[2]
  % Inhibition at 0.1 mM, α-glucosidase rice: - (no inhibition detected)
[3]
  % Inhibition at 0.1 mM, β-mannosidase snail: - (no inhibition detected)

## CCCCCCCCCO[C@@H]1CNC[C@@H](O)[C@H]1O [compound 21, (3R, 4R, 5R)-4,5-Dihydroxy-3-(Nonyloxy) Piperidine]
[2]
  % Inhibition at 0.1 mM, α-glucosidase rice: - (no inhibition detected)
[3]
  % Inhibition at 0.1 mM, β-mannosidase snail: - (no inhibition detected)

Source: paper PMC7582770, “Synthesis of “All-Cis” Trihydroxypiperidines from a Carbohydrate-Derived Ketone: Hints for the Design of New β-Gal and GCase Inhibitors” (Molecules, 2020)
